# Laboratory results published in PubChem BioAssay AID1963844 (Molecular Pharmacology Branch, DTP, NCI, 2024).
# Test system: 422866-222-R5-J1-PDC complex spheroid viability
# Experiment: Anticancer human tumor 422866-222-R5-J1-PDC patient-derived pancreatic adenocarcinoma cell line growth inhibition [POLQ]
# Settings: for IC50: curve of first compound; for viability, T/C: stronger effect = lower value
# Summary of the method: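 Patient-derived tumour cells were co-cultured with HUVEC and mesenchymal stem cells as multicellular spheroids at 37 °C. They were treated with POLQ inhibitors (novobiocin, ART-558, RP6685) alone or combined with other agents. Top concentrations were at or near clinical Cmax (otherwise 10 microM; SN-38 at 1 microM), decreasing in half-log steps.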
# [1] = second compound 0.0316 µM, first compound 0.00949 µM
# [2] = second compound 0.0316 µM, first compound 0.03 µM
# [3] = second compound 0.0316 µM, first compound 0.0949 µM
# [4] = second compound 0.0316 µM, first compound 0.3 µM
# [5] = second compound 0.0316 µM, first compound 0.949 µM
# [6] = second compound 0.0316 µM, first compound 3 µM
# [7] = second compound 0.1 µM, first compound 0.00949 µM
# [8] = second compound 0.1 µM, first compound 0.03 µM
# [9] = second compound 0.1 µM, first compound 0.0949 µM
# [10] = second compound 0.1 µM, first compound 0.3 µM
# [11] = second compound 0.1 µM, first compound 0.949 µM
# [12] = second compound 0.1 µM, first compound 3 µM
# [13] = second compound 0.316 µM, first compound 0.00949 µM
# [14] = second compound 0.316 µM, first compound 0.03 µM
# [15] = second compound 0.316 µM, first compound 0.0949 µM
# [16] = second compound 0.316 µM, first compound 0.3 µM
# [17] = second compound 0.316 µM, first compound 0.949 µM
# [18] = second compound 0.316 µM, first compound 3 µM
# [19] = second compound 1 µM, first compound 0.00949 µM
# [20] = second compound 1 µM, first compound 0.03 µM
# [21] = second compound 1 µM, first compound 0.0949 µM
# [22] = second compound 1 µM, first compound 0.3 µM
# [23] = second compound 1 µM, first compound 0.949 µM
# [24] = second compound 1 µM, first compound 3 µM
# [25] = second compound 3.16 µM, first compound 0.00949 µM
# [26] = second compound 3.16 µM, first compound 0.03 µM
# [27] = second compound 3.16 µM, first compound 0.0949 µM
# [28] = second compound 3.16 µM, first compound 0.3 µM
# [29] = second compound 3.16 µM, first compound 0.949 µM
# [30] = second compound 3.16 µM, first compound 3 µM
# [31] = second compound 10 µM, first compound 0.00949 µM
# [32] = second compound 10 µM, first compound 0.03 µM
# [33] = second compound 10 µM, first compound 0.0949 µM
# [34] = second compound 10 µM, first compound 0.3 µM
# [35] = second compound 10 µM, first compound 0.949 µM
# [36] = second compound 10 µM, first compound 3 µM
# 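Further: spheroids exposed to compounds for one week before readout.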
# 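Wherever viability, T/C is given: percent of DMSO vehicle wells luminescence so 100% = untreated viability.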
smiles,measurement,setting,value
C#Cc1c(F)ccc2cc(O)cc(-c3ncc4c(N5CC6CCC(C5)N6)nc(OCC56CCCN5CC(F)C6)nc4c3F)c12 (stereo unspecified) + Nc1ccc(C#CCN(C(=O)Cc2ncc(C(F)(F)F)cc2C(F)(F)F)c2ccc(F)cc2)nn1,IC50,second compound 0.0316 µM,0.733 µM
same,IC50,second compound 0.1 µM,0.727 µM
same,IC50,second compound 0.316 µM,0.813 µM
same,IC50,second compound 1 µM,0.75 µM
same,IC50,second compound 3.16 µM,0.646 µM
same,IC50,second compound 10 µM,0.619 µM
same,"viability, T/C","second compound 0.0316 µM, first compound 0.0316 µM",95.4%
same,"viability, T/C","second compound 0.0316 µM, first compound 0.1 µM",103%
same,"viability, T/C","second compound 0.0316 µM, first compound 0.316 µM",62.8%
same,"viability, T/C","second compound 0.0316 µM, first compound 1 µM",48.7%
same,"viability, T/C","second compound 0.0316 µM, first compound 3.16 µM",26.8%
same,"viability, T/C","second compound 0.0316 µM, first compound 10 µM",26%
same,"viability, T/C","second compound 0.1 µM, first compound 0.0316 µM",101%
same,"viability, T/C","second compound 0.1 µM, first compound 0.1 µM",71.5%
same,"viability, T/C","second compound 0.1 µM, first compound 0.316 µM",67.6%
same,"viability, T/C","second compound 0.1 µM, first compound 1 µM",43.4%
same,"viability, T/C","second compound 0.1 µM, first compound 3.16 µM",32.1%
same,"viability, T/C","second compound 0.1 µM, first compound 10 µM",21.7%
same,"viability, T/C","second compound 0.316 µM, first compound 0.0316 µM",88.2%
same,"viability, T/C","second compound 0.316 µM, first compound 0.1 µM",78.4%
same,"viability, T/C","second compound 0.316 µM, first compound 0.316 µM",66.2%
same,"viability, T/C","second compound 0.316 µM, first compound 1 µM",44.3%
same,"viability, T/C","second compound 0.316 µM, first compound 3.16 µM",37.1%
same,"viability, T/C","second compound 0.316 µM, first compound 10 µM",27.9%
same,"viability, T/C","second compound 1 µM, first compound 0.0316 µM",102%
same,"viability, T/C","second compound 1 µM, first compound 0.1 µM",89.4%
same,"viability, T/C","second compound 1 µM, first compound 0.316 µM",67.4%
same,"viability, T/C","second compound 1 µM, first compound 1 µM",44.3%
same,"viability, T/C","second compound 1 µM, first compound 3.16 µM",30.6%
same,"viability, T/C","second compound 1 µM, first compound 10 µM",26%
same,"viability, T/C","second compound 3.16 µM, first compound 0.0316 µM",93.1%
same,"viability, T/C","second compound 3.16 µM, first compound 0.1 µM",93%
same,"viability, T/C","second compound 3.16 µM, first compound 0.316 µM",57%
same,"viability, T/C","second compound 3.16 µM, first compound 1 µM",48.2%
same,"viability, T/C","second compound 3.16 µM, first compound 3.16 µM",26.6%
same,"viability, T/C","second compound 3.16 µM, first compound 10 µM",27.9%
same,"viability, T/C","second compound 10 µM, first compound 0.0316 µM",89.6%
same,"viability, T/C","second compound 10 µM, first compound 0.1 µM",92.2%
same,"viability, T/C","second compound 10 µM, first compound 0.316 µM",62.3%
same,"viability, T/C","second compound 10 µM, first compound 1 µM",41.7%
same,"viability, T/C","second compound 10 µM, first compound 3.16 µM",35.3%
same,"viability, T/C","second compound 10 µM, first compound 10 µM",27.7%
CC(=O)O[C@H]1C(=O)[C@@]2(C)[C@H]([C@H](OC(=O)c3ccccc3)[C@]3(O)C[C@H](OC(=O)[C@H](O)[C@@H](NC(=O)c4ccccc4)c4ccccc4)C(C)=C1C3(C)C)[C@]1(OC(C)=O)CO[C@@H]1C[C@@H]2O + Nc1ccc(C#CCN(C(=O)Cc2ncc(C(F)(F)F)cc2C(F)(F)F)c2ccc(F)cc2)nn1,IC50,second compound 0.0316 µM,> 3 µM
same,IC50,second compound 0.1 µM,> 3 µM
same,IC50,second compound 0.316 µM,< 0.00949 µM
same,IC50,second compound 1 µM,> 3 µM
same,IC50,second compound 3.16 µM,< 0.00949 µM
same,IC50,second compound 10 µM,> 3 µM
same,"viability, T/C",[1],60.5%
same,"viability, T/C",[2],56%
same,"viability, T/C",[3],48.5%
same,"viability, T/C",[4],51.8%
same,"viability, T/C",[5],61.9%
same,"viability, T/C",[6],63.6%
same,"viability, T/C",[7],56.8%
same,"viability, T/C",[8],58.3%
same,"viability, T/C",[9],53.6%
same,"viability, T/C",[10],46.4%
same,"viability, T/C",[11],53%
same,"viability, T/C",[12],65.4%
same,"viability, T/C",[13],53.3%
same,"viability, T/C",[14],43.9%
same,"viability, T/C",[15],51.4%
same,"viability, T/C",[16],53.4%
same,"viability, T/C",[17],57%
same,"viability, T/C",[18],69.5%
same,"viability, T/C",[19],59.8%
same,"viability, T/C",[20],46.4%
same,"viability, T/C",[21],50.6%
same,"viability, T/C",[22],51.9%
same,"viability, T/C",[23],56.8%
same,"viability, T/C",[24],65.7%
same,"viability, T/C",[25],56.1%
same,"viability, T/C",[26],46.7%
same,"viability, T/C",[27],46.4%
same,"viability, T/C",[28],47.8%
same,"viability, T/C",[29],74.8%
same,"viability, T/C",[30],66.1%
same,"viability, T/C",[31],55.3%
same,"viability, T/C",[32],55.8%
same,"viability, T/C",[33],54%
same,"viability, T/C",[34],65.8%
same,"viability, T/C",[35],52.6%
same,"viability, T/C",[36],75%
CC(=O)O[C@H]1C(=O)[C@@]2(C)[C@H]([C@H](OC(=O)c3ccccc3)[C@]3(O)C[C@H](OC(=O)[C@H](O)[C@@H](NC(=O)c4ccccc4)c4ccccc4)C(C)=C1C3(C)C)[C@]1(OC(C)=O)CO[C@@H]1C[C@@H]2O + COC1C(OC(N)=O)C(O)C(Oc2ccc3c(O)c(NC(=O)c4ccc(O)c(CC=C(C)C)c4)c(=O)oc3c2C)OC1(C)C,IC50,second compound 0.0316 µM,> 3 µM
same,IC50,second compound 0.1 µM,> 3 µM
same,IC50,second compound 0.316 µM,> 3 µM
same,IC50,second compound 1 µM,> 3 µM
same,IC50,second compound 3.16 µM,> 3 µM
same,IC50,second compound 10 µM,> 3 µM
same,"viability, T/C",[1],64.8%
same,"viability, T/C",[2],57.2%
same,"viability, T/C",[3],61.5%
same,"viability, T/C",[4],59.5%
same,"viability, T/C",[5],64.7%
same,"viability, T/C",[6],80.4%
same,"viability, T/C",[7],71.6%
same,"viability, T/C",[8],67.4%
same,"viability, T/C",[9],66%
same,"viability, T/C",[10],67%
same,"viability, T/C",[11],69.1%
same,"viability, T/C",[12],78.8%
same,"viability, T/C",[13],67%
same,"viability, T/C",[14],63.5%
same,"viability, T/C",[15],54.6%
same,"viability, T/C",[16],65.1%
same,"viability, T/C",[17],70.7%
same,"viability, T/C",[18],84.5%
same,"viability, T/C",[19],62.1%
same,"viability, T/C",[20],54.9%
same,"viability, T/C",[21],61.4%
same,"viability, T/C",[22],56.3%
same,"viability, T/C",[23],59.6%
same,"viability, T/C",[24],81.1%
same,"viability, T/C",[25],66.8%
same,"viability, T/C",[26],52.9%
same,"viability, T/C",[27],55.3%
same,"viability, T/C",[28],54%
same,"viability, T/C",[29],75%
same,"viability, T/C",[30],86.7%
same,"viability, T/C",[31],63.7%
same,"viability, T/C",[32],60.6%
same,"viability, T/C",[33],60.3%
same,"viability, T/C",[34],61.5%
same,"viability, T/C",[35],72%
same,"viability, T/C",[36],91.9%
